Source: patent publication US6376540B1, “Furan nitrone compounds” (Centaur Pharmaceuticals, Inc., priority 1996, dated 2002)

How the values were obtained:
Fas^1pr mutation mice = test: Learning deficit in autoimmune mice, active avoidance T-maze; type: in vivo
Method: Male MRL/MpJ controls and Fas^1pr mutation mice were either dosed orally with 1% methylcellulose (“MC”) or with 100 mg/kg of N-isopropyl-α-(2-sulfofuran-5-yl)nitrone sodium salt (prepared in Example 1 above)(“test compound”) in 1% methylcellulose for 9-10 weeks. Following dosing, animals of approximately 4 months of age were tested in an active avoidance T-maze. In the one day test, animals were analyzed for acquisition to avoid shock within the first five trials of the test.

[1] = Free radical trapping, DCF oxidation, ferrous iron system; type: biochemical; details: 100 μM test compound, 100 μM FeSO4, 50 μM DCF in MEM, 37° C., 2 hrs
Method: (§1) Dichlorofluorescein (DCF) is a compound that fluoresces when oxidized by reactive oxygen species (ROS), such as hydroxyl, peroxyl, or alkoxyl free radicals. Test compounds were evaluated for their ability to scavenge radicals by determining their capacity to prevent the DCF oxidation in a radical generating environment. Two radical generating systems were used: (i) ferrous iron and (ii) tert-butyl hydroperoxide. When ferrous iron is placed in normoxic solution, it autooxidizes to produce ROS in the form of hydroxyl radicals, superoxide anion free radicals, and hydrogen peroxide. Similarly, when tert-butyl hydroperoxide is placed in non-chelated media, trace metals catalyze its oxidation to yield alkoxy, peroxyl, and alkyl free radicals.
(§2) In this assay, either 100 μM FeSO4 or 25 μM tert-butyl hydroperoxide were mixed with 50 μM DCF and 100 μM of the test compound in MEM and the mixture was incubated at 37° C. for 2 hrs. The fluorescence wavelengths measured were 485 nm for excitation and 530 nm for emission. In these tests, N-isopropyl-α-(2-sulfofuran-5-yl)nitrone sodium salt (prepared in Example 1 above) reduced fluorescence by 20% in the Fe^+2 assay and by 13% in the tert-butyl hydroperoxide assay. In comparison, a known free radical trap, N-tert-butyl-α-phenylnitrone (PBN) reduced fluorescence by 48% in the Fe^+2 assay and by 9% in the tert-butyl hydroperoxide assay.

[2] = tested on: primary neuronal/astrocyte cultures; test: Protection against Aβ(1-40)-induced neuronal cell loss; type: cell-based, Sprague Dawley rat; details: similar manner using Aβ(1-40) instead of Aβ(25-35)
Method: Patients with Alzheimer's disease are known to suffer a progressive loss of neuronal cells. See, for example, P. J. Whitehause et al., (1982) Science, 215:1237-1239. […] Sprague Dawley rat hippocampus of 18-day-gestation embryos was excised and then dissociated by trituration to prepare primary neuronal/astrocyte cultures. Cells (3×10^5) were plated on 35 mm poly-D-lysine-coated plates containing Eagle's minimum essential medium supplemented with 10% fetal bovine serum. After 3-5 hours, the original medium was removed and replaced with 1 mL of fresh medium. Cultures were maintained at 37° C. in a 5% CO2/95% air humidified incubator.
To the cells (7 DIV) was added 30 μM of Aβ(25-35) dissolved in dH2O (stored at −20° C.) and 100 μM of the test compound (i.e., a compound of Example 1, 3, 4, 5, 6, 7, 8, 12 or 13 above) in 1% methylcellulose. Controls were also conducted without the test compound. The percentage of morphologically viable neurons was determined counting the number of viable neurons after 96 hours treatment compared to the number of neurons before treatment in the same premarked culture regions (three regions/culture, n=6).
In experiments conducted in a similar manner using Aβ(1-40) instead of Aβ(25-35), the compound prepared in Example 1 above reduced Aβ(1-40)-induced neuronal cell loss by 46% compared to the controls.

[3] = Free radical trapping, DCF oxidation, tert-butyl hydroperoxide system; type: biochemical; details: 100 μM test compound, 25 μM tert-butyl hydroperoxide, 50 μM DCF in MEM, 37° C., 2 hrs
Method: as §1, §2

synthetic Aβ(1-40) = target: T1, synthetic Aβ(1-40) (Homo sapiens, UniProt P05067); test: Inhibition of Aβ(1-40) beta-pleated sheet formation (ThT fluorescence); type: biochemical; details: 10 μM compound, ThT 3 μM, PBS pH 6.0, 12 hours; read-out: inhibition of Aβ(1-40) beta-pleated sheet formation compared to the controls
T1 construct: 3 μL of Aβ(1-40)(3 μg) prepared with dH2O
Description: The deposition of amyloid β-peptide (Aβ) is associated with the development of Alzheimer's disease. See, for example, G. G. Glenner et al. (1984) Biochem. Biophys. Res. Commun., 120:885-890; and R. E. Tanzi (1989) Ann. Med., 21:91-94. Accordingly, compounds which effectively disrupt the formation of Aβ(1-40) or Aβ(1-42) beta-pleated sheets are potentially useful for preventing and/or reversing such amyloid deposits. Thioflavin T (ThT) is known to rapidly associate with beta-pleated sheets, particularly the aggregated fibrils of synthetic Aβ(1-40). This association gives rise to a new excitation maximum at 440 nm and to enhanced emission at 490 nm.
The experiments were performed using a CytoFluor II fluorescence plate reader having the following parameters:
Into each well was aliquoted 95 μl of ThT (3 μM) prepared in PBS (pH 6.0), 2 μL of the compound to be tested (10 μM) prepared with 0.05% of methylcellulose in PBS (pH 6.0), and 3 μL of Aβ(1-40)(3 μg) prepared with dH2O (the compounds prepared in Examples 1, 3, 4, 5, 6, 7, 8, 9, 11 and 12 were tested). The fluorescence measurement began when the Aβ(1-40) was added and continued for a total of 12 hours. The percent inhibition of beta-pleated sheet formation was calculated from the relative fluorescence unit difference between aggregation in the presence and in the absence of the test compounds.

rats = test: N-nitro-L-arginine-induced spatial learning deficit; type: in vivo, rat; details: 10 mg/kg 30 min before each of nine doses of N-nitro-L-arginine (100 mg/kg)
Description: Treatment of rats with N-nitro-L-arginine, a nitric oxide synthase inhibitor, is known to cause a deficit in spatial learning. See, for example, G. A. Bohme et al., (1993) PNAS, 90:9191-9194. Rats treated with N-nitro-L-arginine wander aimlessly throughout their enclosure whereas untreated rats spend most of their time in the quadrant in which they are initially placed and stay away from the open area in the middle of the enclosure. This N-nitro-L-arginine-induced spatial learning deficit is used as a model for learning deficits caused by Alzheimer's disease and other dementias.
In this experiment, 10 mg/kg of N-isopropyl-α-(2-sulfofuran-5-yl)nitrone sodium salt (prepared in Example 1 above) or a control was administered 30 min before each of nine doses of N-nitro-L-arginine (100 mg/kg. iip.). The wanderings of the rats were then monitored. […] In contrast, rats treated with N-nitro-L-arginine and N-isopropyl-α-(2-sulfofuran-5-yl)nitrone sodium salt show a preference for the area of the enclosure into which they were first placed and rarely cross the center of the enclosure as illustrated in FIG. 3C. This behavior is essentially the same as rats treated with a saline control (i.e., without N-nitroL-arginine)(see FIG. 3A).

T1 sequence (P05067 672-711 limits assumed): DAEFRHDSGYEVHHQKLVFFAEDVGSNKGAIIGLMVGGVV

SMILES: CC(C)[N+]([O-])=Cc1ccc(S(=O)(=O)O)o1 [Example 1, N-Isopropyl-α-(2-sulfofuran-5-yl)nitrone]
- protection in acquisition learning deficit compared to Fas mutated animals receiving only 1% methylcellulose (Fas^1pr mutation mice; 100 mg/kg orally for 9-10 weeks, two experiments combined (n=14-15)): 50%
- Mean Acquisition Values (Maximum score of 5.0) (Fas^1pr mutation mice; Fas^1pr mice, 100 mg/kg orally in 1% methylcellulose for 9-10 weeks, first five trials): Mean = 1.467
- reduced fluorescence in the Fe^+2 assay [1]: 20%
- reduction of Aβ(1-40)-induced neuronal cell loss compared to the controls [2]: 46%
- reduced fluorescence in the tert-butyl hydroperoxide assay [3]: 13%
- inhibition at 10 µM (synthetic Aβ(1-40)): 15 to 71%
- spatial learning deficit caused by N-nitro-L-arginine (rats): prevents the spatial learning deficit
